# From patent publication US20260256929A1, “PROTEASE/ENZYME CLEAVABLE LINKER-PAYLOADS AND PROTEIN CONJUGATES” (priority 2022, published 2026)
# Like-named read-outs stand apart in the source and are kept apart here.
# Key:
# Assay type in all cases: cell-based
# MDA-MB-468 = assay: Free drug cell killing activity (cell proliferation assay, Cell Titer-Glo); conditions: for EC50: Homo sapiens
# MDA-MB-231 = assay: as above; conditions: for EC50: Homo sapiens
# A549 = assay: as above; conditions: for EC50: Homo sapiens
# Method: (§1) The in vitro cell killing activity of exatecan, gly-exatecan, and hemiasterlin were evaluated in a panel of breast cancer and lung cancer cell lines.
# (§2) MDA-MB-361, SKBR3, BT20, HCC38, HCC1143, HCC1937, JIMT1, MCF-7, A549, NCI-H441, NCI-H520, NCI-H1703, NCI-H1975, NCI-H2110, NCI-H226, NCI-H292, NCI-H358 cells were purchased from ATCC (American Type Culture Collection, Manassas, VA, USA). All the cell lines were maintained in DMEM/F12 (1:1), high glucose (Corning, Corning, NY) supplemented with 10% heat-inactivated fetal bovine serum (Thermo Scientific, Grand Island, NY), 2 mM glutamax (Thermo Scientific, Grand Island, NY), and 1× Penicillin/Streptomycin (Corning, Corning, NY). Cytotoxicity effect of the Exatecan warhead was measured with a cell proliferation assay. Cells were seeded in a 384-well flat bottom white polystyrene plate at 625 cells/25 uL the day before the actual assay starts. Exatecan was formulated at 2× starting concentration in cell culture medium, serial diluted (1:3) under sterile conditions and added onto cells in triplicates. Plates were cultured at 37° C. in a CO2 incubator for 120 hours. For cell viability measurement, 30 microliter of Cell Titer-Glo® reagent (Promega Corp, Madison, WI) was added into each well, and plates processed as per product instructions. Relative luminescence was measured on an ENVISION® plate reader (Perkin-Elmer; Waltham, MA). Relative luminescence readings were converted to % viability using untreated cells as controls. Data was fitted with non-linear regression analysis, using log (inhibitor) vs. response, variable slope, 4-parameter fit equation using GraphPad Prism.
# BT20 = assay: as above; conditions: for EC50: Homo sapiens
# Method: as §1, §2
# HCC1143 = assay: as above; conditions: for EC50: Homo sapiens
# Method: as §1, §2
# HCC1937 = assay: as above; conditions: for EC50: Homo sapiens
# Method: as §1, §2
# HCC38 = assay: as above; conditions: for EC50: Homo sapiens
# Method: as §1, §2
# JIMT1 = assay: as above; conditions: for EC50: Homo sapiens
# Method: as §1, §2
# MCF-7 = assay: as above; conditions: for EC50: Homo sapiens
# Method: as §1, §2
# MDA-MB-361 = assay: as above; conditions: for EC50: Homo sapiens
# Method: as §1, §2
# NCI-H1703 = assay: as above; conditions: for EC50: Homo sapiens
# Method: as §1, §2
# NCI-H1975 = assay: as above; conditions: for EC50: Homo sapiens
# Method: as §1, §2
# NCI-H2110 = assay: as above
# Method: as §1, §2
# NCI-H226 = assay: as above; conditions: for EC50: Homo sapiens
# Method: as §1, §2
# NCI-H292 = assay: as above; conditions: for EC50: Homo sapiens
# Method: as §1, §2
# NCI-H358 = assay: as above; conditions: for EC50: Homo sapiens
# Method: as §1, §2
# NCI-H441 = assay: as above; conditions: for EC50: Homo sapiens
# Method: as §1, §2
# NCI-H520 = assay: as above; conditions: NCI-H520, 120 hours; for EC50: Homo sapiens
# Method: as §1, §2
# SKBR3 = assay: as above; conditions: for EC50: Homo sapiens
# Method: as §1, §2
# NCI-H2343 = assay: as above
# [1] = system: panel of breast cancer and lung cancer cell lines; assay: Free drug cell killing activity across the whole panel; conditions: all the cell lines tested (Table 2), 120 hours; read-out: EC50 values ranging over all the cell lines tested
# Method: as §1
# as §2, with “For cell viability measurement, 30 microliter of Cell Titer-Glo® reagent (Promega Corp, Madison, WI) was added into each well, and plates processed as per product instructions.” left out, “Data was fitted with non-linear regression analysis, using log (inhibitor) vs. response, variable slope, 4-parameter fit equation using GraphPad Prism.” left out
smiles,measurement,setting,value
"CC[C@@]1(O)C(=O)OCc2c1cc1n(c2=O)Cc2c-1nc1cc(F)c(C)c3c1c2[C@@H](NC(=O)CN)CC3 [Gly-exatecan, gly-exatecan]",EC50,"MDA-MB-468; MDA-MB-468, 120 hours, read-out: EC50",5.3 nM
same,Span (%),"MDA-MB-468; MDA-MB-468, 120 hours",91%
same,EC50,"MDA-MB-231; MDA-MB-231, 120 hours, read-out: EC50",3.8 nM
same,Span (%),"MDA-MB-231; MDA-MB-231, 120 hours",60%
same,Span (%),"A549; A549, 120 hours",90%
same,EC50,"A549; A549, 120 hours, read-out: EC50",44 nM
same,Span (%),"BT20; BT20, 120 hours",92%
same,EC50,"BT20; BT-20, BT20, 120 hours, read-out: EC50",21 nM
same,Span (%),"HCC1143; HCC1143, 120 hours",76%
same,EC50,"HCC1143; HCC1143, 120 hours, read-out: EC50",14 nM
same,Span (%),"HCC1937; HCC1937, 120 hours",87%
same,EC50,"HCC1937; HCC1937, 120 hours, read-out: EC50",35 nM
same,Span (%),"HCC38; HCC38, 120 hours",93%
same,EC50,"HCC38; HCC38, 120 hours, read-out: EC50",6.1 nM
same,EC50,"JIMT1; JIMT-1, JIMT1, 120 hours, read-out: EC50",15 nM
same,Span (%),"JIMT1; JIMT1, 120 hours",70%
same,EC50,"MCF-7; MCF7, MCF-7, 120 hours, read-out: EC50",8.8 nM
same,Span (%),"MCF-7; MCF-7, 120 hours",75%
same,EC50,"MDA-MB-361; MDA-MB-361, 120 hours, read-out: EC50",4.5 nM
same,Span (%),"MDA-MB-361; MDA-MB-361, 120 hours",98%
same,EC50,"NCI-H1703; NCI-H1703, 120 hours, read-out: EC50",25 nM
same,Span (%),"NCI-H1703; NCI-H1703, 120 hours",91%
same,EC50,"NCI-H1975; NCI-H1975, 120 hours, read-out: EC50",43 nM
same,Span (%),"NCI-H1975; NCI-H1975, 120 hours",84%
same,Span (%),"NCI-H2110; NCI-H2110, 120 hours",89%
same,EC50,"NCI-H2110; NCI-H2110, 120 hours, read-out: EC50",9.2 nM
same,EC50,"NCI-H226; NCI-H226, 120 hours, read-out: EC50",23 nM
same,Span (%),"NCI-H226; NCI-H226, 120 hours",99%
same,EC50,"NCI-H292; NCI-H292, 120 hours, read-out: EC50",4 nM
same,Span (%),"NCI-H292; NCI-H292, 120 hours",94%
same,EC50,"NCI-H358; NCI-H358, 120 hours, read-out: EC50",7.5 nM
same,Span (%),"NCI-H358; NCI-H358, 120 hours",95%
same,EC50,"NCI-H441; NCI-H441, 120 hours, read-out: EC50",5.1 nM
same,Span (%),"NCI-H441; NCI-H441, 120 hours",90%
same,EC50,NCI-H520,11 nM
same,Span (%),NCI-H520,80%
same,EC50,"SKBR3; SK-BR-3, SKBR3, 120 hours, read-out: EC50",4.2 nM
same,Span (%),"SKBR3; SKBR3, 120 hours",95%
same,Span (%),"NCI-H2343; NCI-H2343, 120 hours",55%
same,EC50,"NCI-H2343; NCI-H2343, 120 hours, read-out: EC50",30 nM
same,EC50,[1],3.8 to 44 nM
"CC[C@@]1(O)C(=O)OCc2c1cc1n(c2=O)Cc2c-1nc1cc(F)c(C)c3c1c2[C@@H](N)CC3 [Exatecan, exatecan]",EC50,"MDA-MB-468; MDA-MB-468, 120 h",0.59 nM
same,Span (%),"MDA-MB-468; MDA-MB-468, 120 hours",97%
same,EC50,"MDA-MB-231; MDA-MB-231, 120 h",0.84 nM
same,Span (%),"MDA-MB-231; MDA-MB-231, 120 hours",64%
same,Span (%),"A549; A549, 120 hours",96%
same,EC50,"A549; A549, 120 h",1.2 nM
same,Span (%),"BT20; BT20, 120 hours",96%
same,EC50,"BT20; BT-20, 120 h",0.91 nM
same,Span (%),"HCC1143; HCC1143, 120 hours",76%
same,EC50,"HCC1143; HCC1143, 120 h",0.85 nM
same,Span (%),"HCC1937; HCC1937, 120 hours",94%
same,EC50,"HCC1937; HCC1937, 120 h",3.5 nM
same,Span (%),"HCC38; HCC38, 120 hours",96%
same,EC50,"HCC38; HCC38, 120 h",0.38 nM
same,EC50,"JIMT1; JIMT-1, 120 h",1.6 nM
same,Span (%),"JIMT1; JIMT1, 120 hours",98%
same,EC50,"MCF-7; MCF7, 120 h",1.2 nM
same,Span (%),"MCF-7; MCF-7, 120 hours",83%
same,EC50,"MDA-MB-361; MDA-MB-361, 120 h",1.2 nM
same,Span (%),"MDA-MB-361; MDA-MB-361, 120 hours",96%
same,EC50,"NCI-H1703; NCI-H1703, 120 h",1.1 nM
same,Span (%),"NCI-H1703; NCI-H1703, 120 hours",93%
same,EC50,"NCI-H1975; NCI-H1975, 120 h",0.87 nM
same,Span (%),"NCI-H1975; NCI-H1975, 120 hours",90%
same,EC50,"NCI-H2110; NCI-H2110, 120 h",0.61 nM
same,Span (%),"NCI-H2110; NCI-H2110, 120 hours",91%
same,EC50,"NCI-H226; NCI-H226, 120 h",1.08 nM
same,Span (%),"NCI-H226; NCI-H226, 120 hours",98%
same,EC50,"NCI-H292; NCI-H292, 120 h",0.36 nM
same,Span (%),"NCI-H292; NCI-H292, 120 hours",98%
same,EC50,"NCI-H358; NCI-H358, 120 h",0.53 nM
same,Span (%),"NCI-H358; NCI-H358, 120 hours",96%
same,EC50,"NCI-H441; NCI-H441, 120 h",0.32 nM
same,Span (%),"NCI-H441; NCI-H441, 120 hours",93%
same,EC50,NCI-H520,0.6 nM
same,Span (%),NCI-H520,96%
same,EC50,"SKBR3; SK-BR-3, 120 h",0.39 nM
same,Span (%),"SKBR3; SKBR3, 120 hours",96%
same,EC50,NCI-H2343; 120 h,12 nM
same,Span (%),"NCI-H2343; NCI-H2343, 120 hours",70%
same,EC50,[1],0.32 to 4.2 nM
